Source: patent publication US20140171319A1, “Aqueous Composition Comprising a Pesticide and a Base Selected from an Alkali Salt of Hydrogencarbonate” (BASF SE, priority 2011, published 2014)

Legend:
pH of tank mix = assay type: physicochemical
Method: The liquid aqueous composition may have a pH value of at least pH 4.0, preferably of at least 6.0, better of at least 7.0, more preferably of at least 7.5, especially preferred of at least 8.0 and in particular of at least 8.5. The liquid aqueous composition may have a pH of up to 13.0, preferably of up to 11.0 and in particular of up to 9.0. The pH value is usually determined at 20° C.

[1] = Volatility: loss of dicamba from aqueous tank mix on petri dish; assay type: physicochemical; conditions: 70° C., 24 h, atmospheric pressure
Method: The volatility was determined by analyzing the loss of material by HLPL at 70° C. after 24 h at atmospheric pressure. A sample of the aqueous tank mix (300 l/ha) was placed on the petri dish with a defined area (corresponding to a desired field application rate, such as 500 g/ha pesticide).
The application rate was 500 g/ha dicamba (free acid), 1000 g/ha potassium glyphosate, 300 g/ha Genamin® T050 (“Ad2”, 300 g/ha Preference® (“Ad3”) and optionally 250, 500 or 1000 g/ha K2CO3. Deionised water (hardness <1° dH) was used to prepare the samples. Dicamba BAPMA refers to the bis(3-aminopropyl)methylamine salt of dicamba.

Row | Structure (SMILES) | pH of tank mix (pH of tank mix; Example 7 tank mix, 500 g/ha dicamba (free acid), deionised water (hardness <1° dH)) | Loss of dicamba, Loss (wt %) ([1]; 500 g/ha dicamba (free acid), 1000 g/ha potassium glyphosate where Gly-K, deionised water) | pH of tank mix (pH of tank mix; Example 6 tank mix, application rate 500 g/ha dicamba, 300 l/ha) | Loss of dicamba, Loss (wt %) ([1]; application rate 500 g/ha dicamba, tank mix 300 l/ha)
1 | CN(CCCN)CCCN.COc1c(Cl)ccc(Cl)c1C(=O)O [Dicamba BAPMA, bis(3-aminopropyl)methylamine salt of dicamba] | 6.3 | <1 |  | 
2 | COc1c(Cl)ccc(Cl)c1C(=O)O [Dicamba free acid, dicamba] |  |  | 3.0 | 80
